# Test system: double-stranded DNA
# Assay: Competition experiment against ethidium bromide (EB) for binding to EB-saturated double-stranded DNA, gel electrophoresis fluorescence readout
# From the text: A competition experiment was designed to obtain an estimate of the nucleic acid intercalating property of the compound of the invention. The basis of this methodology involves the use of two intercalators, one fluorescent and one non-fluorescent. The fluorescent intercalator first saturates the double-stranded DNA. Then a second intercalator, in this case VFcTMEDA, is introduced into the system with gradual increasing concentration. […] For the competition experiment, the changes in fluorescent intensity were monitored during the displacement of DNA-bound fluorescent molecules by VFcTMEDA through an increasing concentration of the VFcTMEDA molecules in the system. A well-known threading intercalator, ethidium bromide (EB), was chosen as our fluorescent indicator.
# Subsequently, VFcTMEDA was studied with respect to its ability to compete against EB for binding to DNA using the same approach. Different amounts of VFcTMEDA were mixed with the EB saturated double-stranded DNA to examine the bind ability. […] Lanes 1 to 5 correspond to different ratios of VFcTMEDA/EB.
substance,measurement,setting,value
vinylferrocene tetramethylethylenediamine [VFcTMEDA],enhancement of binding constant over EB,Kd of VFcTMEDA relative to EB,~26 fold
same,DNA-bound EB replaced,VFcTMEDA/EB molecular ratio 1/5 (second lane),more than 50%
